Consider six molecules from patent US9260429B2, “Pyrido[3,4-B]indoles and methods of use” (Medivation Technologies, Inc., priority 2008, dated 2016).

Assay [1] addresses T1, human recombinant histamine H1 receptor (Homo sapiens, UniProt P35367).
T1 construct: expressed in transfected cells; host or cells: CHO cells
Nature of the assay: Histamine H1 radioligand binding ([3H]Pyrilamine). The settings on record: 1 μM; read-out: Binding data (Percentage Inhibition) Histamine Binding (1 μM) H1. How it is done: To evaluate in radioligand binding assays the activity of compounds of the invention, human recombinant histamine H1 receptor expressed in Chinese hamster ovary (CHO) cells (De Backer, M. D. et al., Biochem. Biophys. Res. Comm. 197(3):1601, 1993) in a modified Tris-HCl buffer (50 mM Tris-HCl, pH 7.4, 2 mM MgCl2, 100 mM NaCl, 250 mM Sucrose) was used. Compounds of the invention were incubated with 1.2 nM [^3H]Pyrilamine for 180 minutes at 25° C. Non-specific binding was estimated in the presence of 1 μM pyrilamine. Receptor proteins were filtered and washed, the filters were then counted to determine [^3H]Pyrilamine specifically bound. […] Biochemical assay results are presented as the percent inhibition of specific binding in Table 3.

Assay [2] addresses T2, human recombinant histamine H2 receptor (Homo sapiens, UniProt P25021).
T2 construct: expressed in transfected cells; host or cells: CHO-K1 cells
Nature of the assay: Histamine H2 radioligand binding ([125I]Aminopotentidine). The following applies: 1 μM; inhibition of specific [125I]Aminopotentidine binding; read-out: Binding data (Percentage Inhibition) Histamine Binding (1 μM) H2. The protocol: To evaluate in radioligand binding assays the activity of compounds of the invention, human recombinant histamine H2 receptor expressed in Chinese hamster ovary (CHO) K1 cells (Ruat, M., Proc. Natl. Acad. Sci. USA. 87(5):1658, 1990) in a 50 mM Phosphate buffer, pH 7.4 was used. Compounds of the invention were incubated with 0.1 nM [^125I]Aminopotentidine for 120 minutes at 25° C. Non-specific binding was estimated in the presence of 3 μM Tiotidine. Receptor proteins were filtered and washed, the filters were then counted to determine [^125I]Aminopotentidine specifically bound. Compounds were screened at 1 μM or lower, using 1% DMSO as vehicle. Biochemical assay results are presented as the percent inhibition of specific binding in Table 3.

Assay [3] addresses T3, human recombinant serotonin (5-Hydroxytryptamine) 5-HT2C receptor (Homo sapiens, UniProt P28335).
T3 construct: expressed in transfected cells; host or cells: CHO-K1 cells
T3 sequence (P28335 33-458): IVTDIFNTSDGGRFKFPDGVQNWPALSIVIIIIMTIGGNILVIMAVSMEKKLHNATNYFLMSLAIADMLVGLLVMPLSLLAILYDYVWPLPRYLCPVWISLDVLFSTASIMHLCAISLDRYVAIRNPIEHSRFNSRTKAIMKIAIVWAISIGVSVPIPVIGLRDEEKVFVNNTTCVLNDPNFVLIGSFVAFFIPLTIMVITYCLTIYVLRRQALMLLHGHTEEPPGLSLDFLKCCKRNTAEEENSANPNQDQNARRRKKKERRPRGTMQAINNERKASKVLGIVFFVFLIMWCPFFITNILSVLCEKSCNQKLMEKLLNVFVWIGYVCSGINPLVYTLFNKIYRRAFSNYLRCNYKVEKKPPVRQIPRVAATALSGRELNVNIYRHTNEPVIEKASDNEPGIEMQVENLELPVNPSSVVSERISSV
Nature of the assay: Serotonin 5-HT2C radioligand binding ([3H]Mesulergine). The following applies: 1 h; read-out: Percent Inhibition of ligand binding Serotonin (1 μM ligand concentration) 5-HT2C. How it is done:
Compounds of the invention were incubated with 1 nM [^3H]Mesulergine for 60 minutes at 25° C. Non-specific binding was estimated in the presence of 1 μM Mianserin. Receptor proteins were filtered and washed, the filters were then counted to determine [^3H]Mesulergine specifically bound. […] Biochemical assay results are presented as the percent inhibition of specific binding in Table 5.

Assay [4] concerns the target T4, human recombinant serotonin (5-Hydroxytryptamine) 5-HT2A receptor (Homo sapiens, UniProt P28223).
T4 construct: expressed in transfected cells; host or cells: CHO-K1 cells
Briefly: Serotonin 5-HT2A radioligand binding ([3H]Ketanserin). The following applies: 1 h; read-out: Percent Inhibition of ligand binding Serotonin (1 μM ligand concentration) 5-HT2A. How it is done:
To evaluate in radioligand binding assays the activity of compounds of the invention, human recombinant serotonin (5-Hydroxytryptamine) 5-HT2A receptor expressed in Chinese hamster ovary (CHO-K1) cells (Bonhaus, D. W. et al. Br. J. Pharmacol. 115:622, 1995; Saucier, C. and Albert, P. R., J. Neurochem. 68:1998, 1997) in a 50 mM Tris-HCl buffer, pH 7.4, was used. Compounds of the invention were incubated with 0.5 nM [^3H]Ketanserin for 60 minutes at 25° C. Non-specific binding was estimated in the presence of 1 μM Mianserin. Receptor proteins were filtered and washed, the filters were then counted to determine [^3H]Ketanserin specifically bound. Compounds were screened at 1 μM or lower, using 1% DMSO as vehicle. Biochemical assay results are presented as the percent inhibition of specific binding in Table 5.

In assay [5] the target is T5, human recombinant dopamine D2L receptor (Homo sapiens, UniProt P14416).
T5 construct: expressed in transfected cells; host or cells: CHO cells
Briefly: Dopamine D2L radioligand binding ([3H]Spiperone). The following applies: 2 h, 1 μM ligand conc.; read-out: Percent Inhibition of ligand binding Dopamine (1 μM ligand conc.) D2L. How it is done:
To evaluate in radioligand binding assays the activity of compounds of the invention, human recombinant dopamine D2L receptor expressed in Chinese hamster ovary (CHO) cells (Grandy, D. K. et al. Proc. Natl. Acad. Sci. USA. 86:9762, 1989; Hayes, G. et al., Mol. Endocrinol. 6:920, 1992) in a modified Tris-HCl buffer (50 mM Tris-HCl, pH 7.4, 1.4 mM Ascorbic Acid, 0.001% BSA, 150 mM NaCl) was used. Compounds of the invention were incubated with 0.16 nM [^3H]Spiperone for 120 minutes at 25° C. Non-specific binding was estimated in the presence of […] Haloperidol. Receptor proteins were filtered and washed, the filters were then counted to determine [^3H]Spiperone specifically bound. Compounds were screened at 1 μM or lower, using 1% DMSO as vehicle. Biochemical assay results are presented as the percent inhibition of specific binding in Table 4.

Assay [6] has as its target T6, human recombinant serotonin (5-Hydroxytryptamine) 5-HT6 receptor (Homo sapiens, UniProt P50406).
T6 construct: expressed in transfected cells; host or cells: human HeLa cells
Briefly: Serotonin 5-HT6 radioligand binding ([3H]LSD). The settings on record: 2 h; read-out: Percent Inhibition of ligand binding Serotonin (1 μM ligand concentration) 5-HT6. How it is done: To evaluate in radioligand binding assays the activity of compounds of the invention, human recombinant serotonin (5-Hydroxytryptamine) 5-HT6 receptor expressed in human HeLa cells (Monsma, F. J. Jr. et al., Mol. Pharmacol. 43:320, 1993) in a modified Tris-HCl buffer (50 mM Tris-HCl, pH 7.4, 150 mM NaCl, 2 mM Ascorbic Acid, 0.001% BSA) was used. Compounds of the invention were incubated with 1.5 nM [3H]Lysergic acid diethylamide (LSD) for 120 minutes at 37° C. Non-specific binding was estimated in the presence of […] Serotonin (5-HT). Receptor proteins were filtered and washed, the filters were then counted to determine [3H]LSD specifically bound. Compounds were screened at 1 μM or lower, using 1% DMSO as vehicle. Biochemical assay results are presented as the percent inhibition of specific binding in Table 5.

Assay [7] addresses T7, human recombinant serotonin (5-Hydroxytryptamine) 5-HT7 receptor (Homo sapiens, UniProt P34969).
T7 construct: expressed in transfected cells; host or cells: CHO cells
Briefly: Serotonin 5-HT7 radioligand binding ([3H]LSD). The following applies: 2 h; read-out: Percent Inhibition of ligand binding Serotonin (1 μM ligand concentration) 5-HT7. How it is done:
To evaluate in radioligand binding assays the activity of compounds of the invention, human recombinant serotonin (5-Hydroxytryptamine) 5-HT7 receptor expressed in Chinese hamster ovary (CHO) cells (Roth, B. L. et al., J. Pharmacol. Exp. Ther. 268:1403, 1994; Shen, Y. et al., J. Biol. Chem. 268:18200, 1993) in a modified Tris-HCl buffer (50 mM Tris-HCl, pH 7.4, 10 mM MgCl2, 0.5 mM EDTA) was used. Compounds of invention were incubated with 5.5 nM [^3H]Lysergic acid diethylamide (LSD) for 2 hours at 25° C. Non-specific binding was estimated in the presence of […] Serotonin (5-HT). Receptor proteins were filtered and washed, the filters were then counted to determine [^3H]LSD specifically bound. Compounds were screened at 1 μM or lower, using 1% DMSO as vehicle. Biochemical assay results are presented as the percent inhibition of specific binding in Table 5.

A further assay deals with neuronal cells. The following applies: cited from earlier work.
Assay [8] concerns cells treated with ionomycin. The settings on record: after treatment with the cell toxin ionomycin; dose dependent; cited from earlier work.
The next assay concerns brain cells (neurons). The settings on record: preclinical models of Alzheimer's disease and Huntington's disease; cited from earlier work.

T4 sequence (P28223 whole entry): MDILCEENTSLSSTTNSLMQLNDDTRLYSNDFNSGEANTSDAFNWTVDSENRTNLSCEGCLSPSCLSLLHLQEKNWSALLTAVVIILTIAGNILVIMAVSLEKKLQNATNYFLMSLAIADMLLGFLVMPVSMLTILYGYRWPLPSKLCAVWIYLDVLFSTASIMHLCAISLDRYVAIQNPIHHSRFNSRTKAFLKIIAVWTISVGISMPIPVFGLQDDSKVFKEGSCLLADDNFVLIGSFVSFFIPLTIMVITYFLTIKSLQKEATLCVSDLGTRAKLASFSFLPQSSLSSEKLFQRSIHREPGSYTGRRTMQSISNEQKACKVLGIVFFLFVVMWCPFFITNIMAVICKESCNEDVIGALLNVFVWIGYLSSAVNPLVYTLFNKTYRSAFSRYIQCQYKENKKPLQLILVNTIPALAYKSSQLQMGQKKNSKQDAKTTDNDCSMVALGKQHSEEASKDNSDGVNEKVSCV
T5 sequence (P14416 whole entry): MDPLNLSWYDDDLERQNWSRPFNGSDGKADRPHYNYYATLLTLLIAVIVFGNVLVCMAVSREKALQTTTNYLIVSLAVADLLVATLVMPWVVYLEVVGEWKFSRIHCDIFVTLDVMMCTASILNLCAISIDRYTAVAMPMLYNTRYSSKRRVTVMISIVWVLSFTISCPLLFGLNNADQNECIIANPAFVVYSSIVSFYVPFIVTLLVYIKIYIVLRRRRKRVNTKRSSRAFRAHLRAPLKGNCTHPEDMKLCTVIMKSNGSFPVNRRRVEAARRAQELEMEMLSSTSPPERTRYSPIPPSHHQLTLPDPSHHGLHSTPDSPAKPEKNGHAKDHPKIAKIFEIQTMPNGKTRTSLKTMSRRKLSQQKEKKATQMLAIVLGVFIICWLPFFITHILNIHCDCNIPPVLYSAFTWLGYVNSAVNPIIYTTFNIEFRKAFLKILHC
T1 sequence (P35367 whole entry): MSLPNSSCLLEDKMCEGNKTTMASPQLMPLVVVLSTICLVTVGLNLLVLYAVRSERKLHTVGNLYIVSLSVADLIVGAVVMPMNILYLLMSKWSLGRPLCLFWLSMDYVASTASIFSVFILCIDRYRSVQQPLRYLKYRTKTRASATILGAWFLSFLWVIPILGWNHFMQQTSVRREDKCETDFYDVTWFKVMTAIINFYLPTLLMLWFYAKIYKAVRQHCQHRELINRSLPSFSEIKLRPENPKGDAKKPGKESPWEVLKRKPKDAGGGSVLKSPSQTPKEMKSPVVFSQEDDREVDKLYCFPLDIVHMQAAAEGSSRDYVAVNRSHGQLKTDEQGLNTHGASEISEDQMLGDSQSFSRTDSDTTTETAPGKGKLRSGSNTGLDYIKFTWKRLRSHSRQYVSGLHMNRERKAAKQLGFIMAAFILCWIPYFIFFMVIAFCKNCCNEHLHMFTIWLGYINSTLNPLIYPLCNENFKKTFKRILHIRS
T2 sequence (P25021 whole entry): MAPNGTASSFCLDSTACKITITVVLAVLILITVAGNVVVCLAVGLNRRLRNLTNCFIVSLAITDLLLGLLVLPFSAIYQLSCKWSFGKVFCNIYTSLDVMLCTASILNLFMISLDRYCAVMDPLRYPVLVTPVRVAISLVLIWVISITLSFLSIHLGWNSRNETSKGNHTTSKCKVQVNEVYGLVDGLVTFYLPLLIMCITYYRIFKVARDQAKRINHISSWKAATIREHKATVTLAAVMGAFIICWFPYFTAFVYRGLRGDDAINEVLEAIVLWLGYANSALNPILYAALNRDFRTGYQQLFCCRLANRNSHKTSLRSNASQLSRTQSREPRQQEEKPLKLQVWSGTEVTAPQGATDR
T6 sequence (P50406 whole entry): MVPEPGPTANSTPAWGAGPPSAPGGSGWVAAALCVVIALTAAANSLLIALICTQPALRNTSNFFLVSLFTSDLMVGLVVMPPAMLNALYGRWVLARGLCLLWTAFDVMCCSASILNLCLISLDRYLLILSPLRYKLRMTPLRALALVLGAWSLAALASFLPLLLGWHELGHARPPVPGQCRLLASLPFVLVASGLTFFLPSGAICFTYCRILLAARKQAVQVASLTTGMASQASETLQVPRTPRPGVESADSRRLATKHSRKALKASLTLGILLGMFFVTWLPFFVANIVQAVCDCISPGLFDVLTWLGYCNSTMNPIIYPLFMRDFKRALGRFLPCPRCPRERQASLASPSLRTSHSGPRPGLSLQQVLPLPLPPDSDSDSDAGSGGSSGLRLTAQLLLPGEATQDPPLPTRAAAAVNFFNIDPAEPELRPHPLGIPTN
T7 sequence (P34969 whole entry): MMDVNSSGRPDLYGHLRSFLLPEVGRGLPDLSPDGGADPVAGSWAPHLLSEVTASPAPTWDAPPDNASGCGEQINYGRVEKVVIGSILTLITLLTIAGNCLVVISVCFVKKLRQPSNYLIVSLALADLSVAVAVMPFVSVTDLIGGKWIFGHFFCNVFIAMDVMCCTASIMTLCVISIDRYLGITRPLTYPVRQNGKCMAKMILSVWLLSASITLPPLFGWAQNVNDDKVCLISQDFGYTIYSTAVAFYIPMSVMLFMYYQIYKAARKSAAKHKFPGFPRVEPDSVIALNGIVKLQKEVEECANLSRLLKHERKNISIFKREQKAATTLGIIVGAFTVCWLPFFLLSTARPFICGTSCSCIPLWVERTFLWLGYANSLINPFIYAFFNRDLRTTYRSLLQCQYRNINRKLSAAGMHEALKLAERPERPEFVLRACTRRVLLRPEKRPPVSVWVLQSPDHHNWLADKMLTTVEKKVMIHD

For the molecule `Cc1ccc2c(c1)c1c(n2C(=O)Cc2ccc(Cl)cc2)CN(C)CC1` [Compound 173], the inhibition at 1 µM was 12% in [1]; 49% in assay [2]; 90% in [3]; 95% in assay [4]; 22% in assay [5]; 48% in assay [6]. Besides, the inhibition at 1 µM in assay [7] was determined as 81%.

On to `C/C(=C/n1c2c(c3cc(C)ccc31)CCN(C)C2C)c1ccc(F)c(F)c1` (stereo not drawn) [Compound 175, 9-(2-(3,4-difluorophenyl)prop-1-enyl)-1,2,6-trimethyl-2,3,4,9-tetrahydro-1H-pyrido[3,4-b]indole], for which the inhibition at 1 µM stood at 25% in assay [1]; 60% in assay [2]; 97% in assay [3]; 86% in assay [4]; 0% in assay [5]; 77% in assay [6]. In assay [7], the inhibition at 1 µM came out at 82%.

`CCC1c2c(c3cc(C)ccc3n2/C=C(\C)c2ccc(F)c(F)c2)CCN1C` (stereo not drawn) [Compound 176, (E)-9-(2-(3,4-difluorophenyl)prop-1-enyl)-1-ethyl-2,6-dimethyl-2,3,4,9-tetrahydro-1H-pyrido[3,4-b]indole]: the inhibition at 1 µM in [1] was 17%; in assay [2], 26%; in assay [3] it was 94%; in [4], 81%; in assay [5] it was -2%; in [6], 26%. In addition, the inhibition at 1 µM in assay [7] was found to be 53%.

Consider `CCC1c2c(c3cc(C)ccc3n2/C=C(\C)c2ccc(Cl)c(Cl)c2)CCN1C` (stereo not drawn) [Compound 177, 9-(2-(3,4-dichlorophenyl)prop-1-enyl)-1-ethyl-2,6-dimethyl-2,3,4,9-tetrahydro-1H-pyrido[3,4-b]indole], for which the inhibition at 1 µM in [1] was 11%; in assay [2] it was 39%; in assay [3] it was 88%; in [4], 83%; in assay [5] it was 9%; in [6] it was 6%. Moreover, in [7], the inhibition at 1 µM came out at 57%.

As to `C/C(=C\n1c2c(c3cc(C)ccc31)CCN(C)C2C)c1ccc(Cl)cc1Cl` (stereo not drawn) [Compound 178], the inhibition at 1 µM in assay [1] turned out to be 44%; in assay [2], 54%; in [3], 101%; in [4], 97%; in [5], 3%; in assay [6], 25%. Also, in [7], the inhibition at 1 µM amounted to 59%.

As for `Cc1ccc2c(c1)c1c(n2CCc2ccc(C)nc2)CCN(C)C1` [Dimebon, dimebon], the “neurite outgrowth and neurogenesis” value in the assay with neuronal cells was “promote neurite outgrowth and neurogenesis”. Moreover, in assay [8], the mitochondrial function entry is reported as “improved mitochondrial function” and the “number of surviving cells” value is listed as “increased the number of surviving cells”. Moreover, the “death of brain cells (neurons)” value in the assay with brain cells (neurons) is reported as “inhibit the death of brain cells (neurons)”.
